One series is described as follows: stability. The format is physicochemical. Particulars: crystalline salt.
A further series can be described thus: water solubility. Particulars: in water. The format is physicochemical.

The structures appear in SMILES notation.

Consider `C=CC1=C(C(=O)O)N2C(=O)[C@@H](NC(=O)/C(=N\O)c3csc(N)n3)[C@H]2SC1.N` [Crystalline Cefdinir ammonium salt, Cefdinir ammonium salt], for which, in “stability”, the stability entry is “good”. Further, the water solubility result in the series “water solubility” is listed as “complete”.

The values are drawn from patent US20080033169A1, “Crystalline Form Of Cefdinir Ammonium Salt As An Intermediate For The Preparation Of Pure Cefdinir” (priority 2004, published 2008).
